# PubChem BioAssay (NCI)
# Where “and” joins values, the source holds several entries; their conditions need not be identical. Equal values may be shown once.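 Cells were grown in 96-well plates and exposed to each compound for 48 hours at five concentrations; endpoints were interpolated linearly between bracketing concentrations, or set to the highest concentration if not reached. The concentration for 50% growth inhibition is given as GI50. The concentration for full growth arrest is given as TGI.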
# Experiments:
# Assay in all cases: DTP human tumour cell line panel, 48 h
# [1] = system: COLO 205 colon
# [2] = system: HOP-62 NSCLC
# [3] = system: HT29 colon
# [4] = system: IGROV1 ovarian
# [5] = system: M14 melanoma
# [6] = system: NCI-H522 lung
# [7] = system: RPMI-8226 leukemia
# [8] = system: RXF 393 renal
# [9] = system: T-47D breast
# [10] = system: TK-10 renal
SMILES,GI50 [1],TGI [1],GI50 [2],TGI [2],GI50 [3],GI50 [4],TGI [4],GI50 [5],TGI [5],GI50 [6],TGI [6],GI50 [7],TGI [7],GI50 [8],TGI [8],GI50 [9],TGI [9],GI50 [10],TGI [10],TGI [3]
CCc1cnn2c(NCc3ccc[n+]([O-])c3)cc(N3CCCC[C@H]3CCO)nc12,< 0.01 µM and 0.00235 µM,< 0.01 µM and 0.00586 µM,< 0.01 µM and 0.00415 µM,0.0351 µM,< 0.01 µM and 0.00441 µM,< 0.01 µM and 0.0033 µM,> 10 µM,< 0.01 µM and 0.00438 µM,0.0235 µM and 0.0351 µM,< 0.01 µM and 0.00219 µM,< 0.01 µM and 0.00549 µM,< 0.01 µM and 0.00668 µM,0.0244 µM and 0.0436 µM,< 0.01 µM and 0.00188 µM,< 0.01 µM and 0.00446 µM,< 0.01 µM and 0.00485 µM,0.0777 µM,< 0.0156 µM and 0.00916 µM,1.95 µM and > 2.07 µM,–
N#Cc1c(NC(=O)c2ccc(F)cc2)sc2c1CCCC2,> 25 µM,> 25 µM,> 25 µM,> 25 µM,> 25 µM,> 25 µM,> 25 µM,> 25 µM,> 25 µM,> 25 µM,> 25 µM,> 25 µM,> 25 µM,> 25 µM,> 25 µM,> 25 µM,> 25 µM,> 25 µM,> 25 µM,> 25 µM
COc1ccc2c3c1OC1C(OC)(OC)C=C[C@@]4(Br)[C@@H](C2)N(CC2CC2)CC[C@]314 (stereo partly drawn),–,94.1 µM,–,> 100 µM,–,–,> 100 µM,–,> 100 µM,–,47.8 µM,–,> 100 µM,–,> 100 µM,–,> 100 µM,–,> 100 µM,> 100 µM
Cc1cc(N2CCCCC2)nc(NC2CCCC(Nc3ccnc4cc(Cl)ccc34)C2)n1 (stereo not drawn),1.44 µM,2.98 µM,1.46 µM,2.91 µM,–,–,–,1.66 µM,3.29 µM,1.95 µM,3.75 µM,0.472 µM,2.56 µM,1.12 µM,2.47 µM,1.51 µM,4.07 µM,2.07 µM,4.25 µM,–
CC(=O)CC/C=C(\C)[C@H](O)[C@H](C)C(=O)O[C@H]1C[C@H](C)C=C2C=C[C@@]3(C)O[C@@H](O)CC(=O)[C@]3(C)[C@H]21,0.425 µM,2.03 µM,0.492 µM,3.63 µM,0.264 µM,0.42 µM,3.42 µM,0.906 µM,2.38 µM,0.566 µM,4.19 µM,0.308 µM,2.25 µM,0.233 µM,0.867 µM,0.309 µM,2.54 µM,0.942 µM,5.5 µM,1.37 µM
COc1ccc(CCN(CC(=O)N(CC(N)=O)C2CCC[C@@H]2OCc2ccccc2)C(=O)CN(C(=O)CN(CCc2ccc(Cl)cc2)C(=O)CN(C(=O)CN(C)Cc2ccccc2F)[C@H](C)C2CCCCC2)[C@H](C)C2CCCCC2)cc1OC (stereo partly drawn),0.893 µM,2.4 µM,3.02 µM,> 50 µM,1.25 µM,1.68 µM,> 50 µM,1.13 µM,4.05 µM,1.52 µM,32.2 µM,1.19 µM,3.28 µM,1.49 µM,3.84 µM,1.43 µM,> 50 µM,–,–,5.75 µM
NC(=S)N/N=C1\c2ccccc2-c2c(F)c(F)c(F)c(F)c21,8.01 µM,19.6 µM,2.71 µM,6.72 µM,2.2 µM,5.81 µM,13.8 µM,4.53 µM,15.6 µM,0.321 µM,1.21 µM,3.92 µM,> 55.9 µM,2.07 µM,3.85 µM,1.91 µM,5.08 µM,5.7 µM,15.9 µM,5.07 µM
C/C(=N\OCC(O)CNCCSCc1ccccc1)c1ccccc1Cl (stereo not drawn),–,38.4 µM,–,38.8 µM,–,–,–,–,48 µM,–,52.8 µM,–,43.4 µM,–,37 µM,–,48.6 µM,–,35.3 µM,41.4 µM
C=C1C(=O)O[C@H]2[C@H](OC(C)=O)[C@@H](C)CCCC3(C)OC3CCC3(CO3)[C@H](O)C[C@@H]12 (stereo partly drawn),3.8 µM,65.6 µM,21.4 µM,43 µM,3.42 µM,13.9 µM,38.7 µM,11.1 µM,23.6 µM,9.6 µM,28.7 µM,1.38 µM,4.08 µM,12.4 µM,> 100 µM,13.7 µM,62.5 µM,7.39 µM,21.2 µM,> 100 µM
CC1(C)N=C(N)N=C(N)N1c1ccc(Cl)cc1,21.4 µM,> 100 µM,3.54 µM,> 100 µM,1.19 µM,2.27 µM,> 100 µM,5.52 µM,> 100 µM,14.6 µM,> 100 µM,> 100 µM,> 100 µM,8.09 µM,> 100 µM,> 100 µM,> 100 µM,9.9 µM,> 100 µM,> 100 µM
COC(=O)c1cc2oc(/C=C3/SC(=S)N(N)C3=O)cc2n1Cc1ccccc1,5.42 µM,20.7 µM,6.59 µM,25.6 µM,7.47 µM,1.35 µM,4.82 µM,4.33 µM,31.2 µM,7.81 µM,21.8 µM,> 27.5 µM,> 100 µM,2.01 µM,12.2 µM,3.33 µM,10.1 µM,3.2 µM,11.8 µM,19.4 µM
CC(C)(C)c1cc(NC(=O)Nc2ccc(-c3cn4c(n3)sc3cc(OCCN5CCOCC5)ccc34)cc2)no1,7.75 µM and 1.21 µM and 1.76 µM,> 45.7 µM and 8.31 µM and 8.55 µM,1.88 µM and 1.19 µM and 2.29 µM,6.57 µM and 10 µM and > 10 µM,5.61 µM and 0.633 µM and 4.28 µM,9.38 µM and 2.33 µM and > 10 µM,25.7 µM and 15.7 µM and > 10 µM,8.49 µM and 1.28 µM and 6.56 µM,26.8 µM and 16 µM and > 10 µM,0.9 µM and 0.937 µM and 3.32 µM,15.5 µM and 13.5 µM and > 10 µM,0.363 µM and 0.16 µM and 0.34 µM,–,0.8 µM and 0.489 µM and 0.881 µM,6.26 µM and 3.49 µM and > 10 µM,0.0864 µM and 0.107 µM and 0.223 µM,–,11.7 µM and 4.12 µM and > 10 µM,24.1 µM and 17.3 µM and > 10 µM,27 µM and 11.4 µM and > 10 µM
Cn1c(=O)nc2n(-c3ccc(Cl)cc3)c3cc(Cl)ccc3nc-2c1=O,–,5.14 µM,–,33.2 µM,–,–,3.74 µM,–,4.21 µM,–,6.36 µM,–,22.8 µM,–,9.25 µM,–,2.03 µM,–,37 µM,9.57 µM
CN(C)CC(=O)Nc1ccc2ncnc(Nc3ccc(Oc4cccc(C(F)(F)F)c4)c(Cl)c3)c2c1,–,–,2.09 µM,5.71 µM,1.72 µM,1.17 µM,3.03 µM,1.46 µM,2.85 µM,1.8 µM,5.37 µM,1.9 µM,5.51 µM,1.61 µM,3.25 µM,1.31 µM,3.74 µM,1.71 µM,5.03 µM,4.08 µM
